Assay results as given in PubChem BioAssay (NCI).
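Five compound concentrations were applied to cells in 96-well plates for 48 hours; endpoints were derived by simple linear interpolation of the resulting dose-response curve. Here, GI50 denotes the concentration required for 50% inhibition of growth. TGI denotes the concentration required for complete inhibition of growth.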

Experiments:
Assay in all cases: inhibition of tumour cell growth, NCI panel, 48 h
786-0 renal = tested on: 786-0 renal
A498 renal = tested on: A498 renal
A549 NSCLC = tested on: A549 NSCLC
ACHN renal = tested on: ACHN renal
BT-549 breast = tested on: BT-549 breast
CAKI-1 renal = tested on: CAKI-1 renal
CCRF-CEM leukemia = tested on: CCRF-CEM leukemia
COLO 205 colon = tested on: COLO 205 colon
DU-145 prostate = tested on: DU-145 prostate
EKVX NSCLC = tested on: EKVX NSCLC
HCC-2998 colon = tested on: HCC-2998 colon
HCT-116 colon = tested on: HCT-116 colon
HCT-15 colon = tested on: HCT-15 colon
HL-60(TB) leukemia = tested on: HL-60(TB) leukemia
HOP-62 NSCLC = tested on: HOP-62 NSCLC
HOP-92 NSCLC = tested on: HOP-92 NSCLC
HS 578T breast = tested on: HS 578T breast
HT29 colon = tested on: HT29 colon
IGROV1 ovarian = tested on: IGROV1 ovarian
K-562 leukemia = tested on: K-562 leukemia
KM12 colon = tested on: KM12 colon
LOX IMVI melanoma = tested on: LOX IMVI melanoma
M14 melanoma = tested on: M14 melanoma
MALME-3M melanoma = tested on: MALME-3M melanoma
MCF7 breast = tested on: MCF7 breast
MDA-MB-231 breast = tested on: MDA-MB-231 breast
MDA-MB-435 = tested on: MDA-MB-435
MOLT-4 leukemia = tested on: MOLT-4 leukemia
NCI-H226 lung = tested on: NCI-H226 lung
NCI-H23 lung = tested on: NCI-H23 lung
NCI-H460 lung = tested on: NCI-H460 lung
NCI-H522 lung = tested on: NCI-H522 lung
NCI/ADR-RES ovarian = tested on: NCI/ADR-RES ovarian
OVCAR-3 ovarian = tested on: OVCAR-3 ovarian
OVCAR-4 ovarian = tested on: OVCAR-4 ovarian
OVCAR-5 ovarian = tested on: OVCAR-5 ovarian
OVCAR-8 ovarian = tested on: OVCAR-8 ovarian
PC-3 prostate = tested on: PC-3 prostate
RPMI-8226 leukemia = tested on: RPMI-8226 leukemia
RXF 393 renal = tested on: RXF 393 renal
SF-268 CNS = tested on: SF-268 CNS
SF-295 CNS = tested on: SF-295 CNS
SF-539 CNS = tested on: SF-539 CNS
SK-MEL-2 melanoma = tested on: SK-MEL-2 melanoma
SK-MEL-28 melanoma = tested on: SK-MEL-28 melanoma
SK-MEL-5 melanoma = tested on: SK-MEL-5 melanoma
SK-OV-3 ovarian = tested on: SK-OV-3 ovarian
SN12C renal = tested on: SN12C renal
SNB-19 CNS = tested on: SNB-19 CNS
SNB-75 CNS = tested on: SNB-75 CNS
SR leukemia = tested on: SR leukemia
SW-620 colon = tested on: SW-620 colon
T-47D breast = tested on: T-47D breast
TK-10 renal = tested on: TK-10 renal
U251 CNS = tested on: U251 CNS
UACC-257 melanoma = tested on: UACC-257 melanoma
UACC-62 melanoma = tested on: UACC-62 melanoma
UO-31 renal = tested on: UO-31 renal

Compound: COc1ccc(C2CC(c3cc(Cl)c(C)cc3O)=NN2c2ccc(S(N)(=O)=O)cc2)cc1OC (stereo unspecified)
- GI50 (786-0 renal): 2.37 µM
- TGI (786-0 renal): 5.04 µM
- GI50 (A498 renal): 3.98 µM
- TGI (A498 renal): 24.7 µM
- GI50 (A549 NSCLC): 3.54 µM
- TGI (A549 NSCLC): 19.7 µM
- GI50 (ACHN renal): 3.15 µM
- TGI (ACHN renal): 12.2 µM
- GI50 (BT-549 breast): 3.03 µM
- TGI (BT-549 breast): 13.4 µM
- GI50 (CAKI-1 renal): 2.78 µM
- TGI (CAKI-1 renal): > 100 µM
- GI50 (CCRF-CEM leukemia): 5.35 µM
- TGI (CCRF-CEM leukemia): > 100 µM
- GI50 (COLO 205 colon): 1.93 µM
- TGI (COLO 205 colon): 3.41 µM
- GI50 (DU-145 prostate): 4.49 µM
- TGI (DU-145 prostate): 21.7 µM
- GI50 (EKVX NSCLC): 4.15 µM
- TGI (EKVX NSCLC): > 100 µM
- GI50 (HCC-2998 colon): 2.72 µM
- TGI (HCC-2998 colon): 7.25 µM
- GI50 (HCT-116 colon): 1.72 µM
- TGI (HCT-116 colon): 4.36 µM
- GI50 (HCT-15 colon): 3.32 µM
- TGI (HCT-15 colon): 20.2 µM
- GI50 (HL-60(TB) leukemia): 3.42 µM
- TGI (HL-60(TB) leukemia): > 100 µM
- GI50 (HOP-62 NSCLC): 3.92 µM
- TGI (HOP-62 NSCLC): 14.1 µM
- GI50 (HOP-92 NSCLC): 1.81 µM
- TGI (HOP-92 NSCLC): 7.42 µM
- GI50 (HS 578T breast): 3.29 µM
- TGI (HS 578T breast): 34.3 µM
- GI50 (HT29 colon): 2.24 µM
- TGI (HT29 colon): 6.48 µM
- GI50 (IGROV1 ovarian): 2.34 µM
- TGI (IGROV1 ovarian): 5.46 µM
- GI50 (K-562 leukemia): 3.18 µM
- TGI (K-562 leukemia): > 100 µM
- GI50 (KM12 colon): 3.07 µM
- TGI (KM12 colon): 8.77 µM
- GI50 (LOX IMVI melanoma): 3.35 µM
- TGI (LOX IMVI melanoma): 11 µM
- GI50 (M14 melanoma): 2.61 µM
- TGI (M14 melanoma): 7.2 µM
- GI50 (MALME-3M melanoma): 3.65 µM
- TGI (MALME-3M melanoma): 24.6 µM
- GI50 (MCF7 breast): 3.07 µM
- TGI (MCF7 breast): 13.6 µM
- GI50 (MDA-MB-231 breast): 3.81 µM
- TGI (MDA-MB-231 breast): 12.5 µM
- GI50 (MDA-MB-435): 3.97 µM
- TGI (MDA-MB-435): 24 µM
- GI50 (MOLT-4 leukemia): 5.29 µM
- TGI (MOLT-4 leukemia): > 100 µM
- GI50 (NCI-H226 lung): 5.62 µM
- TGI (NCI-H226 lung): 23.1 µM
- GI50 (NCI-H23 lung): 3.11 µM
- TGI (NCI-H23 lung): 13.6 µM
- GI50 (NCI-H460 lung): 2.5 µM
- TGI (NCI-H460 lung): 5.85 µM
- GI50 (NCI-H522 lung): 2.95 µM
- TGI (NCI-H522 lung): 9.61 µM
- GI50 (NCI/ADR-RES ovarian): 3.39 µM
- TGI (NCI/ADR-RES ovarian): 14.1 µM
- GI50 (OVCAR-3 ovarian): 3.37 µM
- TGI (OVCAR-3 ovarian): 9.8 µM
- GI50 (OVCAR-4 ovarian): 4.18 µM
- TGI (OVCAR-4 ovarian): > 100 µM
- GI50 (OVCAR-5 ovarian): 2.25 µM
- TGI (OVCAR-5 ovarian): 6.36 µM
- GI50 (OVCAR-8 ovarian): 3.39 µM
- TGI (OVCAR-8 ovarian): 17.9 µM
- GI50 (PC-3 prostate): 2.61 µM
- TGI (PC-3 prostate): 13.7 µM
- GI50 (RPMI-8226 leukemia): 4.1 µM
- TGI (RPMI-8226 leukemia): > 100 µM
- GI50 (RXF 393 renal): 2.88 µM
- TGI (RXF 393 renal): 7.52 µM
- GI50 (SF-268 CNS): 4.74 µM
- TGI (SF-268 CNS): > 100 µM
- GI50 (SF-295 CNS): 2.7 µM
- TGI (SF-295 CNS): 6.24 µM
- GI50 (SF-539 CNS): 2.1 µM
- TGI (SF-539 CNS): 4.75 µM
- GI50 (SK-MEL-2 melanoma): 5.87 µM
- TGI (SK-MEL-2 melanoma): 32.7 µM
- GI50 (SK-MEL-28 melanoma): 4.29 µM
- TGI (SK-MEL-28 melanoma): 17.7 µM
- GI50 (SK-MEL-5 melanoma): 4.28 µM
- TGI (SK-MEL-5 melanoma): 15.2 µM
- GI50 (SK-OV-3 ovarian): 4.51 µM
- TGI (SK-OV-3 ovarian): 38.3 µM
- GI50 (SN12C renal): 3.7 µM
- TGI (SN12C renal): 30 µM
- GI50 (SNB-19 CNS): 5.53 µM
- TGI (SNB-19 CNS): 89.3 µM
- GI50 (SNB-75 CNS): 2.7 µM
- TGI (SNB-75 CNS): 97.2 µM
- GI50 (SR leukemia): 2.82 µM
- TGI (SR leukemia): > 100 µM
- GI50 (SW-620 colon): 4.08 µM
- TGI (SW-620 colon): 26.6 µM
- GI50 (T-47D breast): 3.1 µM
- TGI (T-47D breast): 13.3 µM
- GI50 (TK-10 renal): 3.97 µM
- TGI (TK-10 renal): 18.4 µM
- GI50 (U251 CNS): 3.71 µM
- TGI (U251 CNS): 14 µM
- GI50 (UACC-257 melanoma): 4.22 µM
- TGI (UACC-257 melanoma): 19.7 µM
- GI50 (UACC-62 melanoma): 3.13 µM
- TGI (UACC-62 melanoma): 12.9 µM
- GI50 (UO-31 renal): 3.3 µM
- TGI (UO-31 renal): > 100 µM
